Patent publication US8546072B2, “Substrate for assaying β-glucan and/or endotoxin and assay method” (Wako Pure Chemical Industries, Ltd., priority 2008, dated 2013)
Primed or numbered codes have the meaning given here. The star is where a group is joined. NH(CH2)4NH′ = not defined here; Boc = CC(C)(C)OC(=O)*

System: clotting enzyme
Assay: Study on the reactivity of clotting enzyme by substrate (β-glucan-activated LAL fraction, HPLC of released fluorescent compound)
Format: biochemical, Limulus polyphemus
Settings: β-glucan-specific LAL fraction, 25 ng/mL standard β-glucan (lentinan), 37° C., FIG. 3
Procedure: b) Aqueous solution of the peptide derivative of the present invention (hereinafter, sometimes abbreviated as substrate of the present invention): Boc-Thr-Gly-Arg-Gly-NH(CH2)4NH-Hilyte647 was dissolved in β-glucan-free water, and prepared to give 640 μM.
c) Aqueous substrate solution of known analogous substrate: Boc-Thr-Gly-Arg-NH-(CH2)4—NH-HiLyte647 obtained in Reference Example 1 was dissolved in β-glucan-free water, and prepared to give 640 μM.
d) Standard β-glucan solution: Intravenous lentinan preparation “Astellas” (Astellas Pharma Inc.) (1 mg) was dissolved in 0.1 M aqueous sodium hydroxide to give 50 μg/mL, and the solution was then diluted appropriately with β-glucan-free water, and used as the standard β-glucan solution. e) β-glucan specific LAL fraction solution: A fraction in which β-glucan-dependent clotting enzyme activity was detected was collected from the blood cell of American horseshoe crab (Limulus polyphemus) according to LAL extraction method described in pages 268 to 269 of “T. Kitagawa et al., Journal of Chromatography, 567 (1991) 267-273” and fractionation method by ion exchange chromatography, LAL fraction (a fraction corresponding to the fraction Nos. 7 to 20 in the above described literature) in 20 mM Tris-HCl buffer (pH 8.0) was obtained. […]

| Substance | time in which the substrate was cleaved by the clotting enzyme (substrate 160 μM in reagent for reaction 1) | decomposition rate (area of released fluorescent compound versus total area) (after 2 hours of reaction) [%] |
| --- | --- | --- |
| Boc-Thr-Gly-Arg-Gly-NH(CH2)4NH-Hilyte647 (Boc-TGRG-{NH(CH2)4NH′-HiLyte Fluor 647}) [tetrapeptide substrate with butanediamine spacer and HiLyte Fluor 647 dye] | about 20 minutes |  |
| Boc-Thr-Gly-Arg-NH(CH2)4NH-Hilyte647 [Reference Example 1] |  | ≤ 20 |
